Assay results: patent US20050009840A1 (SUGEN, INC., priority 2003, published 2005)

molecular target: T1, Met kinase domain (GST fusion protein) (Homo sapiens, UniProt P08581); assay: Met transphosphorylation assay (ELISA, poly(glu-tyr) substrate); assay type: biochemical; conditions: Table 2; read-out: Met IC50;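 also: Cell-free ELISA with plate-bound poly(Glu:Tyr 4:1) phosphorylated by GST-fused Met kinase domain plus ATP and Mn2+, phosphotyrosine detected by anti-phosphotyrosine antibody with HRP and ABTS read-out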
T1 construct: Purified GST fusion protein containing the Met kinase domain
T1 sequence (P08581 1078-1345 limits assumed): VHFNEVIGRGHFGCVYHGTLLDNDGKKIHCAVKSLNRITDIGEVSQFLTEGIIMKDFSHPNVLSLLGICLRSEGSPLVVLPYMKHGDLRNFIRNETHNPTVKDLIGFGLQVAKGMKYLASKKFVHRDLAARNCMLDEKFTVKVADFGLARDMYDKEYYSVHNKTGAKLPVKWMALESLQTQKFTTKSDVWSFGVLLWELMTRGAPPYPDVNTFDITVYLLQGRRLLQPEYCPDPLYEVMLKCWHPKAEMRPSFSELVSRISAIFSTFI

Structure (SMILES) | IC50 [nM]
CN1CCN(C(=O)c2cccc(-c3cnc(N)c(OCc4c(F)ccc(F)c4Cl)c3)c2)CC1 [Example I-226, {3-[6-Amino-5-(2-chloro-3,6-difluoro-benzyloxy)-pyridin-3-yl]-phenyl}-(4-methyl-piperazin-1-yl)-methanone] | 68
Nc1ncc(-c2cccc(C(=O)N3CCC(N)CC3)c2)cc1OCc1c(F)ccc(F)c1Cl [Example I-228, {3-[6-Amino-5-(2-chloro-3,6-difluoro-benzyloxy)-pyridin-3-yl]-phenyl}-(4-amino-piperidin-1-yl)-methanone] | 230
CN(C)[C@H]1CCN(C(=O)c2cccc(-c3cnc(N)c(OCc4c(F)ccc(F)c4Cl)c3)c2)C1 [Example I-231, {-[6-Amino-5-(2-chloro-3,6-difluoro-benzyloxy)-pyridin-3-yl]-phenyl}-[(3S)-3-dimethylamino-pyrrolidin-1-yl]-methanone] | 128
Nc1ncc(-c2cccc(C(=O)N3CC[C@@H](N)C3)c2)cc1OCc1c(F)ccc(F)c1Cl [Example I-232, {3-[6-Amino-5-(2-chloro-3,6-difluoro-benzyloxy)-pyridin-3-yl]-phenyl}-[(3R)-3-amino-pyrrolidin-1-yl]-methanone] | 120
Nc1ncc(-c2cccc(C(=O)N3CC[C@H](N)C3)c2)cc1OCc1c(F)ccc(F)c1Cl [Example I-233, {3-[6-Amino-5-(2-chloro-3,6-difluoro-benzyloxy)-pyridin-3-yl]-phenyl}-[(3S)-amino-pyrrolidin-1-yl]-methyanone] | 120
Nc1ncc(-c2cccc(C(=O)NCCCN3CCCC3)c2)cc1OCc1c(F)ccc(F)c1Cl [Example I-236, 3-[6-Amino-5-(2-chloro-3,6-difluoro-benzyloxy)-pyridin-3-yl]-N-(3-pyrrolidin-1-yl-propyl)-benzamide] | 280
Nc1ncc(-c2cccc(C(=O)NCCCN3CCOCC3)c2)cc1OCc1c(F)ccc(F)c1Cl [Example I-238, 3-[6-Amino-5-(2-chloro-3,6-difluoro-benzyloxy)-pyridin-3-yl]-N-(3-morpholin-4-yl-propyl)-benzamide] | 350
CC(=O)N1CCN(CCNC(=O)c2cccc(-c3cnc(N)c(OCc4c(F)ccc(F)c4Cl)c3)c2)CC1 [Example I-239, N-[2-(4-Acetyl-piperazin-1-yl)-ethyl]-3-[6-amino-5-(2-chloro-3,6-difluoro-benzyloxy)-pyridin-3-yl]-benzamide] | 100

Other lines, results leading:

IC50 [nM] | Structure (SMILES)
260 | Nc1ncc(-c2cccc(C(=O)NCCN3CCCC3)c2)cc1OCc1c(F)ccc(F)c1Cl [Example I-235, 3-[6-Amino-5-(2-chloro-3,6-difluoro-benzyloxy)-pyridin-3-yl]-N-(2-pyrrolidin-1-yl-ethyl)-benzamide]
350 | Nc1ncc(-c2cccc(C(=O)NCCN3CCOCC3)c2)cc1OCc1c(F)ccc(F)c1Cl [Example I-237, 3-[6-Amino-5-(2-chloro-3,6-difluoro-benzyloxy)-pyridin-3-yl]-N-(2-morpholin-4-yl-ethyl)-benzamide]
100 | Nc1ncc(-c2ccc(N3CCCS3(=O)=O)cc2)cc1OCc1c(F)ccc(F)c1Cl [Example I-240, 3-(2-Chloro-3,6-difluoro-benzyloxy)-5-[4-(1,1-dioxo-1λ^6-isothiazolidin-1-yl)-phenyl]-pyridin-2-ylamine]
67 | Nc1ncc(-c2ccc(N3CCCS3(=O)=O)cc2)cc1OCc1c(Cl)cccc1Cl [Example I-241]
140 | Nc1ncc(-c2ccc(N3CCCS3(=O)=O)cc2)cc1OCc1c(F)cccc1C(F)(F)F [Example I-242, 5-[4-(1,1-Dioxo-1λ^6-isothiazolidin-2-yl)-phenyl]-3-(2-fluoro-6-trifluoromethyl-benzyloxy)-pyridin-2-ylamine]
43 | CCN(CC)CCS(=O)(=O)Nc1ccc(-c2cnc(N)c(OCc3c(F)ccc(F)c3Cl)c2)cc1 [Example I-243, 2-diethylamino-ethanesulfonic acid {4-[6-amino-5-(2-chloro-3,6-difluoro-benzyloxy)-pyridin-3-yl]-phenyl)amide]
